Measurements taken from patent US20040105856A1 (priority 2002, published 2004).

How the values were obtained:
[1] = tested on: croton oil induced topical inflammation in mice; conditions: H4 ANTAG #1 10 mg/kg
[2] = target: recombinant human histamine H4 receptor (Homo sapiens, UniProt Q9H3N8); conditions: histamine 100 pM-100 uM, forskolin 3 uM
Chain of recombinant human histamine H4 receptor (Q9H3N8 whole entry): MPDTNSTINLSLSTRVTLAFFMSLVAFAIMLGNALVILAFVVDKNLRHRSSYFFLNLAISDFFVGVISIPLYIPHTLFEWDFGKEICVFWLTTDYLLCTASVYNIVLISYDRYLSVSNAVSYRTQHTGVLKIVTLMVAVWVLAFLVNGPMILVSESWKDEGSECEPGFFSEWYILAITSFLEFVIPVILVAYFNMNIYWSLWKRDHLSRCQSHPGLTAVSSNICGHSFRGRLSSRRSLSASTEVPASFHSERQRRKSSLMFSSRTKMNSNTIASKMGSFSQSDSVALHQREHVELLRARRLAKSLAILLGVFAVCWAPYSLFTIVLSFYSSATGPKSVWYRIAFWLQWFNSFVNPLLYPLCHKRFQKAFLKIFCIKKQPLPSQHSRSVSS

SMILES | Difference in ear thickness (×0.01 mm), Mean ([1]; s.c. 30 min before and 2, 4 h after croton oil, Indomethacin 30 mg/kg, measured 6 h after croton oil) [×0.01 mm] | % inhib of ear swelling ([1]; versus vehicle group, Indomethacin 30 mg/kg s.c.) | Activation of the receptor (decrease of cAMP content in response to forskolin) [2]
COc1ccc2c(c1)c(CC(=O)O)c(C)n2C(=O)c1ccc(Cl)cc1 [Indomethacin] | 10.0 | (−40%) | 
NCCc1c[nH]cn1 [Histamine] |  |  | specifically activated
